How the values were obtained:
[1] = test system: Mtb H37Rv; assay: Mouse chronic infection model of tuberculosis, lung bacterial CFU, Inh or Rif with or without CQ; format: in vivo, BALB/c mice; details: mice, 10 mg/kg chloroquine added to first line TB drug (FIGS. 1B, 1C)
[2] = test system: Mtb H37Rv; assay: Guinea pig infection model of tuberculosis, lung bacterial burden, Inh with or without CQ; format: in vivo, Outbred Hartley guinea pigs; details: Guinea pigs (FIG. 1F)
[3] = test system: TB; assay: Direct in vitro activity on TB
[4] = test system: Mtb within macrophages; assay: Drug tolerance and killing of Mtb within macrophages; format: cell-based; details: by deacidification
[5] = Plasma concentrations and exposures of CQ by intraperitoneal or oral route; details: in vivo
[6] = test system: Mtb H37Rv; assay: Dexamethasone-induced reactivation (relapse) of Mtb in the lungs of chronically infected BALB/c mice after treatment; format: in vivo

Row | SMILES | Bacterial killing and efficacy on addition of chloroquine to Isoniazid (H) or Rifampicin (R) [1] | Bacterial killing and efficacy on addition of chloroquine to Isoniazid [2] | Direct in vitro activity on TB [3] | Effect on phenotypic drug tolerance and killing of Mtb within macrophages [4] | Plasma concentrations and exposures, intraperitoneal versus oral route [5] | Average log10CFU per lung ([6]; reactivated Mtb in lungs after dexamethasone immunosuppression, 22nd week p.i., average over relapsed animals) | Percentage relapse ([6]; treatment stopped at 12 weeks p.i., 8 weeks without treatment, then dexamethasone 10 mg/kg i.p. x4 over 2 weeks, lungs at 22nd week p.i., n=5)
1 | CCN(CC)CCCC(C)Nc1ccnc2cc(Cl)ccc12 (stereo not shown) [Chloroquine] | enhanced bacterial killing and efficacy | enhanced bacterial killing and efficacy | no or limited direct in vitro activity on TB | counteracts phenotypic drug tolerance and accelerates killing of Mtb within macrophages | nearly equivalent plasma concentrations and exposures |  | 
2 | NNC(=O)c1ccncc1 [Inh alone, Isoniazid] |  |  |  |  |  | 4.2 (n = 5) log10CFU per lung | 100% (5/5)

— patent publication US20220395495A1 (priority 2019, published 2022)
